{"source": "patent US20180207190A1", "about": "“COMPOSITION CONTAINING NAD FOR PREVENTING AND TREATING OBESITY OR IMPAIRED GLUCOSE TOLERANCE” (UNIVERSITY OF ULSAN FOUNDATION FOR INDUSTRY COOPERATION, priority 2015, published 2018)", "key": {"[1]": {"system": "C57BL/6 mice", "assay": "Feeding study, single intravascular (ICV, third ventricle cannula) administration: food intake and body weight", "assay_type": "in vivo, mouse", "protocol": "(§1) Mature male C57BL/6 mice were purchased from ORIENT BIO Inc. (Gyeonggi-do, Republic of Korea). Unless stated otherwise, the mice were freely fed a standard diet (Cargill Agri Purina, Inc., Seoul, Republic of Korea). To establish a diet-induced obesity (DIO) model, the mice were fed a HFD (60% fats, Research Diet Co., New Brunswick, N.J.) for 20 weeks. The animals were raised at a controlled temperature (22±1° C.) under a 12-hour light/dark cycle (a light condition from 08:00 a.m. to 8:00 p.m.) For experiments of single administration of NAD+ and NMN, 8-week-old mice were fasted overnight, and NAD+(purchased from Sigma, administered at 0.3, 1 and 3 mg/kg) or NMN (purchased from Sigma, administered at 30, 100, and 300 mg/kg) was intraperitoneally administered to the mice between 09:00 a.m. and 10:00 a.m. For ? chronic NAD+ treatment, NAD+(0.3 mg/kg body weight/day) was intraperitoneally injected once to the mice immediately before the lights went off for 4 weeks.\nPermanent 26-gauge stainless steel cannulae were surgically inserted into the third ventricles of mice (a cannula insertion position: 1.8 mm posterior to bregma and 5.0 mm below the sagittal sinus). For surgery, the mice were anesthetized with a mixture of Zoletil and Rumpun (2:1 v/v, 10 μL/g body weight). The exact cannulation positions of the cannulae were confirmed through a positive dipsogenic response after angiotensin II (50 ng) was administered. Only the mice in which the cannulae were precisely positioned were used for data analyses. After a recovery period of 7 days after the surgery, the mice were daily touched for a predetermined time over a week to minimize a stress response to the experiments. Immediately before administration, NAD+ and NMN were dissolved in 0.9% saline and used. The NAD+ and NMN were dissolved in 2 μL of saline for intravascular administration.\n(§2) A predetermined dose of NAD+ or NMN was administered to C57BL/6 mice, which were fasted overnight, during an early light phase (09:00 to 11:00) by using a given method. The same amount of a vehicle (i.e., physiological saline) was administered to the control mice."}, "[2]": {"system": "C57BL/6 mice", "assay": "Feeding study, single intraperitoneal administration: food intake", "assay_type": "in vivo, mouse", "protocol": "as §1, §2"}, "[3]": {"system": "HFD-fed obese mice", "assay": "Chronic IP injection for 4 weeks: body weight and side effects in ND-fed and HFD-fed (diet-induced obesity) mice", "assay_type": "in vivo, mouse", "details": "for body weight vs saline-injected group: NAD+ 0.3 mg/kg/day IP once a day for 4 weeks, 0.3 mg/kg/day", "protocol": "as §1\nAdditionally, an effect of chronic IP injection of NAD+ on the body weight was also examined (FIG. 4). The mice were divided into four groups (a group of ND-fed mice to which saline was IP injected, a group of ND-fed mice to which NAD+ was IP injected, a group of HFD-fed mice to which saline was IP injected, and a group of HFD-fed mice to which NAD+ was IP injected), and NAD+ was intraperitoneally administered to the mice at a dose of 0.3 mg/kg/day once a day for 4 weeks."}, "[4]": {"system": "HFD-fed obese mice", "assay": "Circadian rhythm of feed intake and physical activity (CLAMS) after chronic IP injection", "assay_type": "in vivo, mouse", "details": "NAD+ 0.3 mg/kg/day IP 4 weeks, CLAMS 24 hours", "protocol": "as §1\nThe feed intake and physical activity of mice were measured using a comprehensive laboratory animal monitoring system (CLAMS, Columbus Instruments) (n=4 to 5). The light and feeding conditions were maintained under the same conditions as in a home cage. Water was freely provided during an observation period.\nFurther, an effect of chronic IP injection of NAD+ on the feed intake was verified as follows. To examine a chronic effect of the NAD+ intraperitoneal injection on the feed intake, NAD+(0.3 mg/kg) or saline was administered to the following three groups of mice once a day for 4 weeks: an IP saline-injected group of mice fed the ND, an IP saline-injected group of mice fed the HFD, and an IP NAD+-injected group of mice fed the HFD.\nTo test an effect of habitual IP injection of NAD+(0.3 mg/kg/day) on mobility in an obese animal model, the mice were divided into three groups, that is, an IP saline-injected group of mice fed the ND, an IP saline-injected group of mice fed the HFD, and an IP NAD+-injected group of mice fed the HFD and the mobility thereof was evaluated."}, "[5]": {"system": "C57BL/6 mice", "assay": "Oral glucose tolerance test", "assay_type": "in vivo, mouse", "details": "NAD+ 0.3, 1, 3 mg/kg single IP 30 minutes before oral glucose 2 g/kg, overnight-fasted normal mice", "protocol": "For an oral glucose tolerance test, the mice were fasted overnight, 2 g/kg (body weight) of glucose was orally administered (by oral gavage), and blood glucose levels were measured immediately before oral administration (0 minute) and 15, 30, 60, and 120 minutes after the oral administration. 30 minutes prior to glucose administration, NAD+(0.3, 1 and 3 mg/kg) was intraperitoneally administered.\nTo examine an effect of single IP injection of NAD+ on the glucose tolerance, an oral glucose tolerance test was performed on ND-fed C57BL/6 mice that were fasted overnight. A single IP dose of NAD+(0.3, 1 and 3 mg/kg) was administered to the mice, and glucose (2 g/kg) was orally administered thereto after 30 minutes. Thereafter, blood glucose levels were measured at 15, 30, 60, and 120 minutes."}, "[6]": {"system": "cultured neuronal cells, astrocytes, and cardiac myocytes", "details": "cells treated with NAD+; cited from earlier work"}, "[7]": {"system": "rodents", "details": "exogenous NAD+ administration; cited from earlier work"}, "[8]": {"details": "NR supplementation; cited from earlier work"}, "[9]": {"system": "diabetic mice fed a high-fat diet", "details": "cited from earlier work"}, "[10]": {"biological_target": "NQO1 (Homo sapiens, UniProt P15559)", "sequence (P15559 whole entry, species assumed)": "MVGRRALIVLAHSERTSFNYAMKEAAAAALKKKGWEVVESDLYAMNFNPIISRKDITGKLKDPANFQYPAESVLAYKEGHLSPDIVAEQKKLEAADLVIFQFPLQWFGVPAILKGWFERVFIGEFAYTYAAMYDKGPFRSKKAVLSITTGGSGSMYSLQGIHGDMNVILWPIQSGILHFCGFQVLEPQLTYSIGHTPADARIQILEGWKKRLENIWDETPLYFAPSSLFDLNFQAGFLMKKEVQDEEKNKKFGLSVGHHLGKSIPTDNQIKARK", "details": "cited from earlier work"}}, "note": "Entries after “also recorded” stand apart in the source; their conditions may differ.", "data": [{"molecule": "NC(=O)c1ccc[n+]([C@@H]2O[C@H](COP(=O)([O-])OP(=O)(O)OC[C@H]3O[C@@H](n4cnc5c(N)ncnc54)[C@H](O)[C@@H]3O)[C@@H](O)[C@H]2O)c1", "note": "[NAD+, nicotinamide adenine dinucleotide]", "values": [{"measurement": "weight gain / body weight for 24 hours vs saline", "setting": "[1]; NAD+ 0.2 pmol single intracerebroventricular (ICV)", "value": "significantly suppressed; also recorded: reduced the body weight; also recorded: significantly reduced level of weight gain"}, {"measurement": "food intake vs saline", "setting": "[1]; NAD+ 0.2, 1, 2 pmol single intracerebroventricular (ICV), overnight-fasted mice, observed for 24 hours, effect maintained at 24 hours", "value": "significantly reduced; also recorded: reduced food intake"}, {"measurement": "time at which decrease in food intake started after administration", "setting": "[1]; NAD+ single intracerebroventricular (ICV)", "value": 2, "unit": "h"}, {"measurement": "food intake at 4 hours vs saline", "setting": "[2]; NAD+ 1 mg/kg single IP", "value": "significantly reduced"}, {"measurement": "food intake at 4 hours vs saline", "setting": "[2]; NAD+ 0.3, 1, 3 mg/kg single IP, overnight-fasted mice", "value": "significantly reduced"}, {"measurement": "body weight vs saline-injected group", "setting": "[3]; HFD-fed obese mice", "value": "significantly reduced; also recorded: significant effect; also recorded: significant decrease"}, {"measurement": "side effects of chronic injection", "setting": "[3]; NAD+ 0.3 mg/kg/day IP, 4 weeks", "value": "did not cause any notable side effects"}, {"measurement": "body weight vs saline-injected group", "setting": "[3]; ND-fed normal mice", "value": "did not induce a weight loss; also recorded: not significantly different"}, {"measurement": "daytime feed intake", "setting": "[4]", "value": "significantly reduced"}, {"measurement": "nighttime feed intake", "setting": "[4]", "value": "did not significantly reduce"}, {"measurement": "food intake frequency", "setting": "[4]; 0.3 mg/kg/day", "value": "suppressed a high food intake frequency of the obese mice to a normal mouse level; also recorded: significantly reduced"}, {"measurement": "nighttime physical activity (mobility)", "setting": "[4]; 0.3 mg/kg/day", "value": "remarkably restored"}, {"measurement": "blood glucose level at 15 and 30 minutes after glucose administration vs saline", "setting": "[5]", "value": "significantly reduced; also recorded: much lower blood glucose level"}, {"measurement": "apoptosis induced by oxidative stress", "setting": "[6]", "value": "reduced"}, {"measurement": "ischemic brain damage and cardiomegaly", "setting": "[7]", "value": "improves"}]}, {"molecule": "NC(=O)c1ccc[n+]([C@@H]2O[C@H](CO)[C@@H](O)[C@H]2O)c1", "note": "[NR, nicotinamide riboside]", "values": [{"measurement": "NAD+ level in peripheral tissues such as liver and skeletal muscles", "setting": "[8]", "value": "increases"}, {"measurement": "NAD+ level in the brain", "setting": "[8]", "value": "does not increase"}]}, {"molecule": "NC(=O)c1ccc[n+]([C@@H]2O[C@H](COP(=O)([O-])O)[C@@H](O)[C@H]2O)c1", "note": "[NMN, nicotinamide mononucleotide, reference compound]", "values": [{"measurement": "food intake vs saline", "setting": "[1]; NMN 10 pmol single ICV, 24 hours after injection", "value": "reduced; also recorded: much lower level of food intake"}, {"measurement": "change in body weight for 24 hours vs control", "setting": "[1]; NMN 10, 100, 1,000 pmol single ICV", "value": "no significant difference; also recorded: did not cause a change in body weight"}, {"measurement": "food intake at 4 hours vs saline", "setting": "[2]; NMN 300 mg/kg single IP", "value": "significantly reduced level of food intake"}, {"measurement": "food intake at 24 hours vs control", "setting": "[2]; NMN 30, 100, 300 mg/kg single IP", "value": "did not have a reduced food intake; also recorded: not maintained; also recorded: no decrease in food intake"}, {"measurement": "NAD+ level in the liver, adipose tissues, and skeletal muscles", "setting": "[9]; IP NMN, HFD-fed diabetic mice", "value": "successfully increases"}, {"measurement": "glucose tolerance", "setting": "[9]; NMN, diabetic mice", "value": "restores damaged glucose tolerance"}]}, {"molecule": "CC1(C)CCC2=C(O1)c1ccccc1C(=O)C2=O", "note": "[βL]", "values": [{"measurement": "NAD+, NAD+/NADH, and NADP+/NADPH ratios", "setting": "[10]", "value": "increase"}]}]}
